# ChEMBL document CHEMBL5465560, “Selectivity Literature for EUbOPEN Chemogenomic Library” (2024)
# Tests used:
# [1] = target: T1, Activin receptor type-1 (Homo sapiens) (UniProt Q04771); experiment: Selectivity interaction (KinomeScan (DiscoverX)) EUB0001079a ACVR1; details: at 1 µM
# T1 sequence (whole entry): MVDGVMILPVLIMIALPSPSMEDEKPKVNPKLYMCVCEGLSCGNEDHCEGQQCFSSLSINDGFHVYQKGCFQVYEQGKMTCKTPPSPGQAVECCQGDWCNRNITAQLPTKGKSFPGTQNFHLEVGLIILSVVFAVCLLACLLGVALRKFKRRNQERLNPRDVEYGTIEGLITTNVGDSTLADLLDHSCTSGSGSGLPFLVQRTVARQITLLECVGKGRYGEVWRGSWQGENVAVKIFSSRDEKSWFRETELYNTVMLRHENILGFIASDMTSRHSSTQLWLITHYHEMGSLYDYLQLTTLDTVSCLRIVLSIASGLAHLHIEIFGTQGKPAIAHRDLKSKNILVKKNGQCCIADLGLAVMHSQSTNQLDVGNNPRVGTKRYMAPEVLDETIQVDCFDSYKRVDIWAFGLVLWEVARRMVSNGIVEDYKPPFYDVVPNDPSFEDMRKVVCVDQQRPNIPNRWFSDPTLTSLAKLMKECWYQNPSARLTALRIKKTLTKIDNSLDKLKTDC
# [2] = target: T2, Dual specificity mitogen-activated protein kinase kinase 3 (Homo sapiens) (UniProt P46734); experiment: Selectivity interaction (KinomeScan (DiscoverX)) EUB0000666a MAP2K3; details: at 10 µM
# T2 sequence (whole entry): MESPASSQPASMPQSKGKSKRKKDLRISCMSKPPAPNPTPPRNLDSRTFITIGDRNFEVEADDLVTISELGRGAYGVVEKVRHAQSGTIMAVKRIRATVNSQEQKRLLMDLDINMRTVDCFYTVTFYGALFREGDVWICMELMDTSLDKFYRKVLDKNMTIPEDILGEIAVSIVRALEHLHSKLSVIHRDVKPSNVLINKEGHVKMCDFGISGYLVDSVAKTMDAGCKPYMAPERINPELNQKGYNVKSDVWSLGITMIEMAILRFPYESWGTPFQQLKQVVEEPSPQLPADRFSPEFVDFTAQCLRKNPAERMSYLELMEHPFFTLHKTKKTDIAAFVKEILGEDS
# [3] = target: T3, Calcium/calmodulin-dependent protein kinase type IV (Homo sapiens) (UniProt Q16566); details: at 10 µM
# T3 sequence (whole entry): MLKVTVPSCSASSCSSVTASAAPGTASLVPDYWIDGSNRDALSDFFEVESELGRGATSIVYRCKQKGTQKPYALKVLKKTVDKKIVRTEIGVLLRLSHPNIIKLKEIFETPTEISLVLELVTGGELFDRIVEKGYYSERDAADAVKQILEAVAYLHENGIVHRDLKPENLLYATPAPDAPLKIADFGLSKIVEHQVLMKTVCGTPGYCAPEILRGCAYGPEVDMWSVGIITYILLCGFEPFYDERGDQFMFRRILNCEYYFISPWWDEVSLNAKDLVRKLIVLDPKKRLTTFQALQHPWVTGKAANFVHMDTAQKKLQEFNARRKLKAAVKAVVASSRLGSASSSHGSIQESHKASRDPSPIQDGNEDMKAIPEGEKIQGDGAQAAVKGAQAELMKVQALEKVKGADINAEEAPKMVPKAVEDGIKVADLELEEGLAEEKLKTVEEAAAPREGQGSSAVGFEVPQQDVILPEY
# [4] = target: T4, Protein kinase C epsilon type (Homo sapiens) (UniProt Q02156); experiment: Selectivity interaction (SelectScreen profiling (Invitrogen)) EUB0000607a PRKCE; details: at 2 µM
# T4 sequence (whole entry): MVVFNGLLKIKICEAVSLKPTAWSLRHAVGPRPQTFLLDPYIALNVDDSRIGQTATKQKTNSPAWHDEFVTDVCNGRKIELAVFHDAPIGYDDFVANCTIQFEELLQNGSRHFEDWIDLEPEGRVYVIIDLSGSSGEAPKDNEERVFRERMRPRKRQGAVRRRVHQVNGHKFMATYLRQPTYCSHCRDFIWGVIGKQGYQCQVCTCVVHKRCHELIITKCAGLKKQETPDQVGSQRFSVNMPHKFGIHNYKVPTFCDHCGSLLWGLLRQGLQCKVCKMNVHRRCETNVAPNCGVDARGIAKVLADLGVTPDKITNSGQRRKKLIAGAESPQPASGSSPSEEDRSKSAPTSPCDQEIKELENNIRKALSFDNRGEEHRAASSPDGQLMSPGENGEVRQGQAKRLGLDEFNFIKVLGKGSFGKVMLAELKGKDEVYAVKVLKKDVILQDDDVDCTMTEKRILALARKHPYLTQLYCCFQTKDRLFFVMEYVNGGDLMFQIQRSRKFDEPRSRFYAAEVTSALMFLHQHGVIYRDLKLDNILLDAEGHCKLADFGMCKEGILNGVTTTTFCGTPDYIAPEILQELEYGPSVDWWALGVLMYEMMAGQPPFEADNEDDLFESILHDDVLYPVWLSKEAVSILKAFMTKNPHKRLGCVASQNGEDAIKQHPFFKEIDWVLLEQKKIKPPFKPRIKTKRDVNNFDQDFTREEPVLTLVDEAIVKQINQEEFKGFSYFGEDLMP
# [5] = target: Serine/threonine-protein kinase WNK4 (Homo sapiens) (UniProt Q96J92); experiment: Selectivity interaction (KinomeScan (DiscoverX)) EUB0000695a WNK4; details: at 100 nM
# [6] = target: T5, Serine/threonine-protein kinase DCLK2 (Homo sapiens) (UniProt Q8N568); experiment: Selectivity interaction (KinomeScan (DiscoverX)) EUB0000618a DCLK2; details: at 10 µM
# T5 sequence (whole entry): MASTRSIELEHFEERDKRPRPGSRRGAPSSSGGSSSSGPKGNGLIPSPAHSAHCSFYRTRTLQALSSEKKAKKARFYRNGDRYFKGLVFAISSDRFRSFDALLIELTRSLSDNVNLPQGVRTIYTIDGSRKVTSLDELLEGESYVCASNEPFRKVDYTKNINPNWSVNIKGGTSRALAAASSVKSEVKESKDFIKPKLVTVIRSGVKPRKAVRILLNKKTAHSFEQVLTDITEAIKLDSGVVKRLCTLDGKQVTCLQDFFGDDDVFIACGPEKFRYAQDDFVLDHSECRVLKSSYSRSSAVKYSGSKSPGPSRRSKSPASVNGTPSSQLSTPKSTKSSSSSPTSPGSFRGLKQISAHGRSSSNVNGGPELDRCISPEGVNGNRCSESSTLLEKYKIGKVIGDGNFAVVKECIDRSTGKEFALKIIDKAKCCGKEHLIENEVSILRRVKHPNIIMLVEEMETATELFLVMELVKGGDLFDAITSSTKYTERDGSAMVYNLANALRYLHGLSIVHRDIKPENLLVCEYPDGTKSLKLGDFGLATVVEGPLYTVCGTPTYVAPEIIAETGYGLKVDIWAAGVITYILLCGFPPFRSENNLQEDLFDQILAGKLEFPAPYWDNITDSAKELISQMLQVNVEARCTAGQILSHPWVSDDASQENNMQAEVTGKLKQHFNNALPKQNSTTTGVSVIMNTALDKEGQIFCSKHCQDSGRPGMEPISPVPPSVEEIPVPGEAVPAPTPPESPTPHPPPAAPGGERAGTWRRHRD
# Sequence of Serine/threonine-protein kinase WNK4 (Homo sapiens) (Q96J92 whole entry): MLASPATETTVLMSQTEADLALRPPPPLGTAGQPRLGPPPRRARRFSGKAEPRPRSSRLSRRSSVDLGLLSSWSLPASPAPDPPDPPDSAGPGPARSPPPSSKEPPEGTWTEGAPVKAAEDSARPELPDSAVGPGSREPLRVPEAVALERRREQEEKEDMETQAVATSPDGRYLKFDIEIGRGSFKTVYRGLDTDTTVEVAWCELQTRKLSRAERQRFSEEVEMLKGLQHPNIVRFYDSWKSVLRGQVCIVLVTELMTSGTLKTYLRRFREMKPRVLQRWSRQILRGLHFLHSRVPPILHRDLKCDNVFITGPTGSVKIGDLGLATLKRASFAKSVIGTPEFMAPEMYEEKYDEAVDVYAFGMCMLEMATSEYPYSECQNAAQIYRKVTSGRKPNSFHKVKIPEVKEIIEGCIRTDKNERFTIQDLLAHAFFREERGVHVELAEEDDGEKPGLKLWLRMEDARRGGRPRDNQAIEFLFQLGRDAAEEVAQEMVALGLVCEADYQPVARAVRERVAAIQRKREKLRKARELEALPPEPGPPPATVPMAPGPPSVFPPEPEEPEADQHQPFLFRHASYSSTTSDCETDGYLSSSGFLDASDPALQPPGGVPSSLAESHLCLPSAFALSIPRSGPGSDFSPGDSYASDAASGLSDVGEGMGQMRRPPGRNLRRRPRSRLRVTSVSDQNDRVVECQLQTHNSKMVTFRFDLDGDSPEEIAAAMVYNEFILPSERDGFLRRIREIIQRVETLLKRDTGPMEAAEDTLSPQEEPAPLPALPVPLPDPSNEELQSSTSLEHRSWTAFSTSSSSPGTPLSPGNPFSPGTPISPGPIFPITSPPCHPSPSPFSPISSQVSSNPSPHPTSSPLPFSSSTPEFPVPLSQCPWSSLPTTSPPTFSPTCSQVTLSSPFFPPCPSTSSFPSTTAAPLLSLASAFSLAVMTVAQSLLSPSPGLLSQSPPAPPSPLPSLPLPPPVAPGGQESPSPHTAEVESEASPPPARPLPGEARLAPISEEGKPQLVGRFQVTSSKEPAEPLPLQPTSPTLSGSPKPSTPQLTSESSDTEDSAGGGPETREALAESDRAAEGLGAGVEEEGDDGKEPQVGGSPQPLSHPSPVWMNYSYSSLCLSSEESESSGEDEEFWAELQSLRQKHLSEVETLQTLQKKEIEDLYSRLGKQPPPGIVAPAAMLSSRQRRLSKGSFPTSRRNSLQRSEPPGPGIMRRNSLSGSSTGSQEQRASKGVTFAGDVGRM
smiles,measurement,setting,value
Nc1cnc(N2CCc3cc(S(=O)(=O)Nc4c(F)cc(Cl)cc4F)cc(N4CCCC4=O)c32)nc1 [TP-020n],% of control,[1],100%
O=C(NOC[C@H](O)CO)c1ccc(F)c(F)c1Nc1ccc(I)cc1F,% of control,[2],89%
Cc1cc([C@@H](C)Nc2ccccc2C(=O)O)c2nc(N3CCOCC3)cc(=O)n2c1 [AZD-6482],% of control,[3],100%
CNC(=O)Nc1ccc(-c2nc(N3CC4CCC(C3)O4)c3cnn(C4CCC5(CC4)OCCO5)c3n2)cc1,% of inhibition,[4],15%
Cc1cc(F)c(C(=O)Nc2cccc(-c3nncn3C(C)C)n2)cc1-n1cnc(C2CC2)c1,% of control,[5],100%
O[C@H]1CC[C@H](Nc2ncc3nc(Nc4c(F)cc(F)cc4F)n([C@H]4CCOC4)c3n2)CC1,% of control,[6],100%
